Laboratory results taken from US7691563B2, “Method for alleviating pain using sphingosine-1-phosphate and related compounds, and assays for identifying such compounds” (Sanofi-Aventis Pharma GmbH, priority 2003, dated 2010).

Legend:
adenylyl cyclase (AC) = test: AC activity of HeLa cell lysates after treatment of cells; format: cell-based, human; settings: HeLa cells
Description: Panel B: Adenylyl cyclase activity of HeLa cell lysates was measured in the absence and presence of serum as described in Materials and Methods section. The Gsα* (80 nM; grey bars)- and forskolin (100 μM; black bars)-stimulated specific activities of ACV were 124±10 pmol/mg/min and 464±89 pmol/min/mg, respectively. The basal activity was 11.75±2 pmol/mg/min. The mean ±SE of at least 2 experiments each done in triplicates is shown. Student T test: *p<0.001.
Panel E: Serum-starved HeLa cells were treated with sense, antisense, and 3M-as ODNs as described above. After 24 hours the cells were incubated for 30 minutes with 10% FBS. Cells were harvested and AC activity in presence of Gαs* (80 nM; grey bars) and forskolin (100 μM; black bars) was determined as described above. Data from at least 3 experiments measured in triplicates are presented as the mean±SEM. Student T test: *p<0.01, **p<0.05.
Panel B: Serum-starved HeLa cells were treated for varying times with 0.5 μM S1P. Cells were harvested and AC activity in presence of 80 nM Gαs* was determined as described in Material and Methods. Data from at least 4 experiments measured in triplicates are presented as the mean ±SE.
Panel C: Serum-starved HeLa cells were treated with sense, antisense, and 3M-as ODNs as described in the Materials and Methods section. After 24 hours the cells were incubated for the indicated times with 0.5 μM S1P. Cells were harvested and AC activity in presence of Gαs* (80 nM) was determined as described above. Data are presented as the mean ±SEM of three determinations.
Panel A: Serum-starved HeLa cells were treated with 0.5 μM S1P for 3 (grey bars) or 60 (black bars) minutes. Prior incubation with S1P the cells were incubated for 24 hours with […] pertussis toxin (PTX). AC activity in was determined presence of 80 nM Gαs*. Data from at least 2 experiments measured in triplicates are presented as the mean ±SE.
Panel B: Serum-starved HeLa cells were treated with 0.5 μM S1P. Prior incubation with S1P the cells were incubated for 20 minutes with 10 μM U73122, R031-8220, BAPTA-AM or U0126. AC activity in was determined presence of 80 nM Gαs*. Data from at least 2 experiments measured in triplicates are presented as the mean ±SE.
Spinal cords were lysed in 25 mM Hepes, pH 7.4, 1 mM EGTA and cell membranes were prepared as described by Kassis and Fishman. Aliquots were stored at −80° C. until use. AC activity assays were performed in a volume of 100 μl for 15 min at room temperature in the presence of 100 μM MgCl2 as previously described (Patel et al., 2002). Gsα* (80 nM) or forskolin (100 μM) were used to stimulate AC enzyme activity in membranes (10 μg protein).
The sequences of the oligodeoxynucleotides (ODNs) were chosen as published previously (Scholich et al., 2001). Sense: 5′-CTGTTCATGCCGGTT-3′, antisense: 5′-AACCGGCATGAACAG-3′, and antisense ODN harboring three mutations (3M-as; mutations are underlined): 5′-AATCCGTATGAACAC-3′. HeLa-cells were plated on 35 mm dishes (300,000 cells) and grown in DMEM medium (Gibco, Karlsruhe, Germany) containing 10% FBS and 1% penicillin/streptoMycin for 24 hours. The ODNs (3 μM each) were introduced into the cells by transfections using Tfx20 (Promega, Madison, Wis.) in 1 ml serum-free medium according to the instructions of the manufacturer. Two hours later, 1 ml DMEM (Gibco, Karlsruhe, Germany) containing 10% FBS was added. The cells were then incubated for 6 hours. Then the medium was exchanged against serum-free DMEM (Gibco, Karlsruhe, Germany), followed by an incubation for 16 hours in serum-free DMEM (Gibco, Karlsruhe, Germany) before being treated with 10% serum or […] S1P. The cells were then used for Western blots by adding boiling 1× Laemmli buffer or they were havested for AC activity assays as described above.

adult rats = test: Formalin test after intrathecal application of S1P; format: in vivo, rat; settings: 20 μl of 10 μM S1P intrathecal 15 minutes prior to formalin; 20 to 35 minutes after formalin; versus PBS/DMSO
Description: FIG. 24: Pain behaviour of adult rats in the formalin assay with and without application of S1P over a period of 60 minutes. 20 μl of 10 μM S1P or 20 μl PBS/DMSO were given to adult rats by intrathecal application 15 minutes prior to formalin injection. After formalin injection, flinches were counted in 5 minute intervals over a time-period of 60 minutes. The mean of six animal experiments+SEM is shown.
To determine the analgesic effect of S1P, S1P was delivered to the spinal chord by intrathecal application.
Rats were anesthetized with ketamine (60 mg/kg i.p.) and midazolam (0.5-1 mg/kg i.p.). The skin was incised above the vertebral column from vertebrae Th13 up to L3. Muscle tissue around L2-3 was cleared away. The processus spinosus of L3 was removed and a laminectomy was done at L2. Polyethylene catheters (ID 0.28 mm, OD 0.61 mm) were then inserted into the peridural space so that the tip of the catheter reached Th9-10. […]
Within 15 min after stopping the infusion the formalin test was performed. […] Flinches were counted in one minute intervals up to 60 min starting right after formalin injection. […]
20 μl of 10 μM S1P or 20 μl PBS/DMSO were given to adult rats by intrathecal application 15 minutes prior to the formalin injection. Then, flinches were counted in 5 minute intervals over a period of 60 minutes.

CCCCCCCCCCCCC/C=C/[C@@H](O)[C@@H](N)COP(=O)(O)O [S1P, Sphingosine-1-Phosphate]
Gαs-stimulated AC activity (adenylyl cyclase (AC); 0.5 μM S1P): reduced | time to first decrease of Gαs-stimulated AC activity (adenylyl cyclase (AC); after incubation with S1P): ≤ 3 min | number of nociceptive responses (flinches), phase 2A (adult rats): significant decrease
